# How the values were obtained:
# 4VO rat model = assay: Histology, living neurons in CA1 region of hippocampus after 4VO; format: in vivo; conditions: 33 days after insult
# Experimental: The rats were anesthetized using ketamine (90 mg/kg) and xylazine sodium ([…]), as described earlier (Meilin et al., 2014). The first cervical vertebrata was exposed and the vertebral arteries were permanently occluded by electrocauterization. The common carotid arteries were isolated through a ventral midline neck incision and lifted using a 4.0 silk suture ligature, placed around them.
# Twenty-four hours post vertebral arterial occlusion, the animals were reanesthetized using isoflurane. The common carotid arteries were exposed and occluded using microaneurysm clips for 15 minutes. After removing the clips reperfusion occurred. The skin of the incision at the neck was sutured using 4-0 silk suture. During the operation animal's core temperature was monitored using a rectal probe (Model 400; YSI Inc., Yellow Springs, Ohio, USA) connected to a thermometer (Model 8402-00; Cole-Parmer Instrument Co. Ltd, London, UK). The ischemic insult was initiated when a rectal temperature of 37-38° C. was achieved, and this temperature was maintained throughout the procedure using a heating mattress.
# During the acclimatization period rats were randomly assigned to experimental groups. The animals were subjected to 4VO per cage or one rat per cage was subjected to HI. Rats received either vehicle (normal saline at pH 3.8-4.0) or 2-IB (1.1 mg/kg, 3.3 mg/kg, 10 mg/kg and 30 mg/kg dissolved in 5 ml/kg normal saline at pH 3.8-4.0). Each dosing group was kept in separate cages to avoid cross-contamination by consuming stools during the study period. The experimental groups were as follows.
# Rats were sacrificed at 33 days after the insult with an overdose of pentobarbital sodium (100 mg/kg i.p.). Histological analysis was performed in at least 9 rats for each group. The brains of the other 3 rats per group were snap frozen in liquid nitrogen and were stored for future analysis. The brain was perfused via the left ventricle with heparinised normal saline to remove the excess of blood from the brain. Afterwards the brain was perfused with 4% paraformaldehyde phosphate-buffered saline. The whole brain was removed and immersed in formaldehyde for at least another 72 hours. Brains were embedded in paraffin. Coronal sections ([…]) were cut at approximately 3.3 mm from the bregma and stained with hematoxylin-eosin. Sections were scored in a blinded way for living neurons in the right and left part of the CA1 region of the hippocampus, the most damaged area in this model of global ischemia. This was also considered a secondary outcome parameter.
# IMR-32 cells [1] = assay: LDH cytotoxicity assay, hypoxia-induced cell damage; format: cell-based, human; conditions: 10 ng/ml 2-IB, 17 hours after hypoxia
# IMR-32 cells [2] = assay: Reactive oxygen species (ROS) measurement, H2DCFDA; format: cell-based, human
# Experimental: (§1) In vitro hypoxia was induced in the cell cultures by using our recently described system with minor modifications (Huang et al., 2013b; Weber et al., 2015; Zitta et al., 2010). Enzyme stock solutions (100×) of catalase and glucose oxidase (both from Sigma-Aldrich) were prepared in cell culture medium (DMEM/F12, 1% FCS; final concentration: 120 U/ml and 2 U/ml respectively; Sigma-Aldrich) leading to a decrease of partial pressure of oxygen (pO2) below 10 mmHg within 5 minutes. Hypoxic conditions were confirmed by using a tissue oxygen pressure monitor (LICOX® CMP Oxygen Catheter; Integra, Plainsboro, USA). After 7 hours of hypoxia, the cells were washed twice with PBS (PAA) and fresh normoxic medium supplemented with solvent (citrate buffer 1%) or 2-IB (10, 30, 50, 100 and 300 ng/mL) was added to the cells. Investigations of cell damage, metabolic activity, ROS, hydrogen peroxide, nitrite/nitrate production, erkl/2, akt and stat5 phosphorylation as well as cell stress protein expression were performed with cell culture media or cell protein (FIG. 1).
# For reactive oxygen species (ROS) measurements, 4×10^4 cells were seeded per well and cultured for 3 days in black walled 96-well plates (Greiner Bio-One, Frickenhausen, Germany). After hypoxia, cells were washed with pre-warmed PBS and cultured in a phenol red-free DMEM/F12 medium (Gibco®-invitrogen, NY, USA) with 1% fetal calf serum (PAA) for 17 hours, supplemented with solvent (citrate 1%) or 2-IB (10, 30, 50, 100, 300 ng/ml). Intracellular ROS were measured by adding 2′7′-dichlorodihydrofluorescein diacetate (H2DCFDA, Sigma-Aldrich) to a final concentration of 10 μM which is oxidized to fluorescent dichlorofluorescein (DCF) by intracellular ROS. DCF-loaded cells were kept in the dark at 37° C. and fluorescence was evaluated at an excitation wavelength of 485 nm and emission wavelength of 535 nm using an ELISA reader (Genios F L; Tecan, Crailsheim, Austria). Fluorescence data were acquired at time points 0 (T0) and 30 minutes (T30) and results were calculated as the increment of fluorescence (%) over time [(T30-T0)/T0×100]. Hydrogen peroxide was measured in the culture medium with a Quanti-Chrom™ Peroxide Assay Kit (Bio-Assay Systems, Hayward, USA), which utilizes the chromogenic Fe3+-xylenol orange reaction, in which a purple complex is formed when Fe2+ provided in the reagent is oxidized to Fe3+ by the hydrogen peroxide present in the sample. Briefly, 100 μl of detection reagent were added to 20 μl of culture medium and measurements were performed based on the manufacturer's protocol. Absorbance of the colorimetric samples and standards was measured at 620 nm using an ELISA reader (Tecan, Crailsheim, Germany).
# iNOS and nNOS = conditions: Tataranno et al., 2015; cited from earlier work
# IMR-32 cells [3] = assay: Nitrate/nitrite Griess assay in culture media; format: cell-based, human; conditions: data not shown
# Experimental: as §1
# Nitrate and nitrite concentrations were evaluated in culture media using a Griess colorimetric assay kit (Sigma-Aldrich) according to the manufacturer's instructions. Absorbance at 540 nm was measured in samples and standards using an ELISA reader (Tecan, Crailsheim, Germany).
smiles,measurement,setting,value
"N=C1N[C@H]2[C@H](CS[C@H]2CCCCC(=O)O)N1 [2-IB, 2-iminobiotin]",surviving cells in the CA1 region,4VO rat model; 1.1 mg/kg/dose s.c.,29±34
same,surviving cells in the CA1 region,4VO rat model; 3.3 mg/kg/dose s.c.,71±61
same,surviving cells in the CA1 region,4VO rat model; 10 mg/kg/dose s.c.,63±54
same,surviving cells in the CA1 region,4VO rat model; 30 mg/kg/dose s.c.,50±51
same,LDH/total LDH,IMR-32 cells [1]; hypoxia,0.15±0.03
same,LDH/total LDH,IMR-32 cells [1]; normoxia,0.09±0.02
same,ROS increase (T30-T0)/T0×100,"IMR-32 cells [2]; 30 ng/ml 2-IB, hypoxia",222.00±52.57%
same,ROS increase (T30-T0)/T0×100,"IMR-32 cells [2]; 30 ng/ml 2-IB, normoxia",118.93±20.09%
same,ROS increase (T30-T0)/T0×100,"IMR-32 cells [2]; 50 ng/ml 2-IB, hypoxia",233.38±53.94%
same,ROS increase (T30-T0)/T0×100,"IMR-32 cells [2]; 50 ng/ml 2-IB, normoxia",154.85±30.83%
same,ROS increase (T30-T0)/T0×100,"IMR-32 cells [2]; 100 ng/ml 2-IB, hypoxia",246.71±58.94%
same,ROS increase (T30-T0)/T0×100,"IMR-32 cells [2]; 100 ng/ml 2-IB, normoxia",128.84±21.94%
same,ROS increase (T30-T0)/T0×100,"IMR-32 cells [2]; 300 ng/ml 2-IB, hypoxia",311.57±79.02%
same,ROS increase (T30-T0)/T0×100,"IMR-32 cells [2]; 300 ng/ml 2-IB, normoxia",141.20±25.35%
same,"hypoxia-induced generation of ROS, most efficient concentration",IMR-32 cells [2]; 10-300 ng/ml tested,most efficiently attenuated with 50 ng/ml 2-IB
same,inhibition of NO biosynthesis,iNOS and nNOS,"reversible inhibitor of NO biosynthesis, blocking mainly iNOS and nNOS activity"
same,nitrate and nitrite concentrations in culture media,IMR-32 cells [3],neither nitrate nor nitrite concentrations were influenced by hypoxia or by 2-IB

# Source: patent US10722496B2, “2-iminobiotin for use in the treatment of brain cell injury” (Neurophyxia B.V., priority 2015, dated 2020)
